Some test systems named below: A498; HCC 2998; HCT-15; HL-60; HOP-92; IGROV-1; K562; NCI-H23; NCI-H460; NCI-H522; NCI/ADR-RES; OVCAR-8; PC-3; RPMI-8226; SK-MEL-28; SK-MEL-5; SR; UO-31; T47D.
Common to all, as to assay: NCI anticancer screen, dose series, 48 h

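Interpolation was linear, between the two tested concentrations surrounding the appropriate level; five concentrations were tested over 48 hours in 96-well plates. GI50 = concentration required for 50% inhibition of growth.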 Calls of active or inactive are those of the source. Cut-off read from the data, not from the text of the source: active = GI50 up to about 1.1 µM and inactive = higher.

Consider `Cc1cn([C@@H]2C[C@](C)(CO)N(C)O2)c(=O)[nH]c1=O`, for which the GI50 in the test with A498 was > 100 µM (inactive); in the test with HCC 2998, > 100 µM (inactive); in the test with HCT-15, over 100 µM; with HL-60 it was > 100 µM (inactive); with HOP-92, > 100 µM (inactive); in the test with IGROV-1 it was > 100 µM (inactive). Besides, the GI50 in the test on K562, in the test on NCI-H23, with NCI-H460, in the test on NCI-H522, in the test with NCI/ADR-RES and in the test on OVCAR-8 was > 100 µM (inactive) throughout. Moreover, the GI50 in the test with PC-3, in the test on RPMI-8226, in the test with SK-MEL-28, with SK-MEL-5, in the test with SR and in the test on UO-31 was > 100 µM (inactive) in each case.

On to `COc1cc(/C=C2\CCC(C)/C(=C\c3cc(OC)c(OC)c(OC)c3)C2=O)cc(OC)c1OC` (stereo unspecified), for which the GI50 was 1.76 µM (inactive) in the test on A498; 1.99 µM with HCT-15; > 100 µM (inactive) with HOP-92; 2.38 µM (inactive) with IGROV-1; 2.69 µM (inactive) with K562; 2.4 µM (inactive) in the test on OVCAR-8. The GI50 is 2.7 µM (inactive) in the test on PC-3; 0.286 µM (active) with RPMI-8226; 4.35 µM (inactive) in the test with SK-MEL-28; 2.21 µM (inactive) with SK-MEL-5; 8.95 µM (inactive) in the test with T47D; 3.99 µM (inactive) in the test on UO-31.

As to `O=C(CN1c2ccccc2Sc2ccccc21)N1CCNCC1`, the GI50 in the test on A498 is 34.6 µM (inactive); in the test on HCT-15 it was over 100 µM; in the test on HL-60, > 100 µM (inactive); in the test on HOP-92, 29.5 µM (inactive); in the test with IGROV-1, 71.4 µM (inactive); with K562 it was > 100 µM (inactive). The GI50 in the test with NCI-H23 was > 100 µM (inactive); with NCI-H460 it was > 100 µM (inactive); with NCI/ADR-RES, > 100 µM (inactive); in the test on OVCAR-8, > 100 µM (inactive); in the test with PC-3, 73.1 µM (inactive); in the test with RPMI-8226, > 100 µM (inactive). For the same compound, the GI50 in the test with SK-MEL-28 was > 100 µM (inactive); with SK-MEL-5, 40.3 µM (inactive); in the test on T47D it was 71.9 µM (inactive); with UO-31 it was 95.5 µM (inactive).

On to `N=C(N)NCC[C@H](NC(=O)OCCCCCn1ccc(=O)[nH]c1=O)C(=O)O`, for which the GI50 in the test on HCC 2998 is > 100 µM (inactive); with HCT-15 it was over 100 µM; in the test with HL-60 it was > 100 µM (inactive); in the test on HOP-92, > 100 µM (inactive); with K562 it was > 100 µM (inactive); with NCI-H23, > 100 µM (inactive). In addition, the GI50 in the test with NCI-H460, with NCI/ADR-RES, with OVCAR-8, in the test with PC-3, with RPMI-8226 and in the test on SK-MEL-28 was > 100 µM (inactive) each time. Also, the GI50 with SK-MEL-5, with T47D and with UO-31 was > 100 µM (inactive) each time.

With `C#CCCCCC#Cc1ccccc1C(=O)C=[N+]=[N-]`, the GI50 was > 100 µM (inactive) in the test on A498; > 100 µM (inactive) in the test with HCC 2998; over 100 µM in the test on HCT-15; > 100 µM (inactive) in the test on HOP-92; > 100 µM (inactive) with IGROV-1; 39.8 µM (inactive) with K562. Also, the GI50 in the test on NCI-H23 was > 100 µM (inactive); in the test with NCI-H460, > 100 µM (inactive); with NCI-H522, > 100 µM (inactive); in the test on OVCAR-8, > 100 µM (inactive); in the test on PC-3, > 100 µM (inactive); in the test with RPMI-8226 it was 16.5 µM (inactive). For the same compound, the GI50 in the test on SK-MEL-28, in the test on SK-MEL-5, in the test with T47D and in the test on UO-31 was > 100 µM (inactive) each time.

As for `c1ccc(C2(c3ccccc3)S/C(=C3/SC(c4ccccc4)(c4ccccc4)c4ccccc43)c3ccccc32)cc1`, the GI50 with A498 is > 100 µM (inactive); with HCC 2998, > 100 µM (inactive); with HCT-15, over 100 µM; with HL-60, > 100 µM (inactive); in the test with HOP-92, > 100 µM (inactive); in the test on IGROV-1 it was > 100 µM (inactive). Besides, the GI50 in the test on K562, in the test with NCI-H23, in the test on NCI-H460, with NCI-H522, in the test with NCI/ADR-RES and with OVCAR-8 was > 100 µM (inactive) in each case. Moreover, the GI50 in the test on PC-3, with SK-MEL-28, in the test on SK-MEL-5, in the test with SR and with UO-31 was > 100 µM (inactive) in each case.

`C[C@]12Cc3cnn(-c4ccc(F)cc4)c3NC1CC[C@@H]1C2CC[C@@]2(C)C1CC[C@@H]2O` (stereo partly specified): the GI50 with A498 is 8.83 µM (inactive); in the test on HCC 2998 it was 5.41 µM (inactive); with HL-60, 1.61 µM (inactive); in the test on HOP-92, 11 µM (inactive); in the test with IGROV-1, 12.7 µM (inactive); in the test with K562, 2.94 µM (inactive). In addition, the GI50 is 2.85 µM (inactive) with NCI-H23; 3.65 µM (inactive) in the test on NCI-H460; 12.2 µM (inactive) in the test with NCI-H522; 12.5 µM (inactive) in the test with OVCAR-8; 10 µM (inactive) with PC-3; 14.1 µM (inactive) in the test with SK-MEL-28. Also, the GI50 is 2.65 µM (inactive) with SK-MEL-5, 0.537 µM (active) in the test on SR, 2.65 µM (inactive) in the test with T47D and 8.61 µM (inactive) with UO-31.

Regarding `COc1c(C)c(C/C=C(\C)CC/C=C(\C)CCC=C(C)C)c(OC)c(OC)c1OC`, the GI50 with HCC 2998 is 54.6 µM (inactive); in the test on HCT-15, over 100 µM; with HOP-92, > 100 µM (inactive); with IGROV-1, > 100 µM (inactive); in the test with K562, > 100 µM (inactive); with NCI-H23, > 100 µM (inactive). Besides, the GI50 in the test with NCI-H460 was > 100 µM (inactive); in the test on NCI-H522, 41.3 µM (inactive); in the test on NCI/ADR-RES, > 100 µM (inactive); with OVCAR-8 it was > 100 µM (inactive); in the test on PC-3 it was > 100 µM (inactive); with SK-MEL-5 it was 74.5 µM (inactive). Also, the GI50 is 66.4 µM (inactive) in the test on SR and > 100 µM (inactive) in the test on UO-31.

In the case of `O=c1[nH]c2ccc(CC(=S)N3CCN(c4ccccc4)CC3)cc2s1`, the GI50 was 62.2 µM (inactive) in the test on A498; 42.2 µM in the test with HCT-15; > 100 µM (inactive) in the test with HL-60; 9.16 µM (inactive) with IGROV-1; 48.2 µM (inactive) in the test on K562; 20.7 µM (inactive) with NCI-H23. Moreover, the GI50 is 13 µM (inactive) in the test on NCI-H460; 13.2 µM (inactive) in the test on NCI/ADR-RES; 14.3 µM (inactive) in the test with OVCAR-8; 18.3 µM (inactive) with PC-3; 12.7 µM (inactive) in the test on RPMI-8226; > 100 µM (inactive) in the test on SK-MEL-28. Also, the values for the GI50 in the test on SR and in the test on UO-31 were 19.9 µM (inactive) and 0.063 µM (active), respectively.

As to `CCOC(=O)/C(=C\NC(N)=S)C(=O)c1ccccc1`, the GI50 with A498 is > 100 µM (inactive); in the test with HCC 2998, > 100 µM (inactive); with HCT-15 it was over 100 µM; in the test on HL-60, > 100 µM (inactive); with HOP-92, > 100 µM (inactive); in the test with IGROV-1, > 100 µM (inactive). Besides, the GI50 with NCI-H23, in the test on NCI-H460, in the test with NCI/ADR-RES, in the test with OVCAR-8, in the test with SK-MEL-28 and with SK-MEL-5 was > 100 µM (inactive) each time. For the same compound, the GI50 in the test on T47D and in the test on UO-31 was > 100 µM (inactive) throughout.

Regarding `CC(=O)C(C(C)=O)[C@@H]1OC(C)(C)O[C@@H]1[C@H]1COC(C)(C)O1`, the GI50 is 93.3 µM (inactive) with A498; > 100 µM (inactive) in the test on HCC 2998; 41.5 µM with HCT-15; 26.6 µM (inactive) in the test on HL-60; > 100 µM (inactive) in the test with HOP-92; 35.6 µM (inactive) in the test on IGROV-1. For the same compound, the GI50 with K562 was 30.2 µM (inactive); in the test on NCI-H23, 34 µM (inactive); with NCI-H460, 61.5 µM (inactive); in the test with NCI-H522, 26.9 µM (inactive); in the test on NCI/ADR-RES, 55.6 µM (inactive); in the test with OVCAR-8, 40.6 µM (inactive). Further, the GI50 in the test on PC-3 was 43.6 µM (inactive); in the test on RPMI-8226, 34.7 µM (inactive); in the test with SK-MEL-28, 60.3 µM (inactive); in the test with SK-MEL-5, 47.8 µM (inactive); in the test with SR, 38.8 µM (inactive); in the test on UO-31, 55.2 µM (inactive).

As for `CC(C(=O)NCNC(=O)c1ccccc1)C(=O)Nc1ccccc1` (stereo unspecified), the GI50 was over 100 µM in the test on HCT-15; > 100 µM (inactive) in the test with HL-60; > 100 µM (inactive) with HOP-92; > 100 µM (inactive) with IGROV-1; > 100 µM (inactive) in the test on NCI-H23; > 100 µM (inactive) in the test with NCI-H460. For the same compound, the GI50 in the test on NCI-H522, in the test with NCI/ADR-RES, in the test with OVCAR-8, with PC-3, in the test with RPMI-8226 and with SK-MEL-5 was > 100 µM (inactive) in each case. For the same compound, the GI50 in the test with T47D and in the test with UO-31 was > 100 µM (inactive) in each case.

Take `Cc1ccc(/C=C2\CCCCCC2=O)cc1`: the GI50 in the test on A498 is > 100 µM (inactive); in the test on HCC 2998, > 100 µM (inactive); in the test with HCT-15, over 100 µM; in the test on HL-60, < 0.01 µM (active); in the test on HOP-92, > 100 µM (inactive); in the test with IGROV-1, > 100 µM (inactive). Also, the GI50 in the test with K562, in the test on NCI-H23, in the test with NCI-H460, in the test with NCI-H522, in the test with PC-3 and in the test with RPMI-8226 was > 100 µM (inactive) throughout. Further, the GI50 with SK-MEL-28, with SK-MEL-5, with SR, with T47D and with UO-31 was > 100 µM (inactive) throughout.

The values are drawn from ChEMBL document CHEMBL1201862, “PubChem BioAssay data set” (2004).
